Results reported in patent US20180200233A1, “COMPOSITIONS FOR PREVENTING CANCERS ASSOCIATED WITH HUMAN PAPILLOMA VIRUSES” (Loma Linda University, priority 2015, published 2018).

Legend:
SiHa cells = assay: in vitro; assay type: cell-based, human
Protocol: FIGS. 3A-E are graphs providing data regarding resistance of HPV^+ SiHa cells to TRAIL-, cisplatin- and […] apoptosis, in the presence and absence of small molecules as disclosed herein. (FIG. 3A) HPV^+ SiHa cells are resistant to TRAIL-induced apoptosis as compared to the human osteosarcoma cell line U2OS. Cells (2×10^4 cells per well) were seeded into a 96-well plate, allowed to incubate overnight, and then treated with indicated concentration of TRAIL in the presence of cycloheximide (5 μg/ml). The viability of cells was measured after overnight incubation using the MTT assay; the viability of cells untreated with TRAIL was set at 100% for each group. (FIG. 3B) The indicated concentrations of three small molecules were added to SiHa cells, and an MTT assay was preformed after overnight incubation. The viability of cells untreated with small molecules was set as 100%. (FIG. 3C) The indicated concentrations of myricetin or spinacine were added 4 h prior to TRAIL (100 ng/ml) in the presence of cycloheximide (5 μg/ml) and incubated at 37° C. overnight. The viability of cells untreated with small molecules was set at 100%. (FIG. 3D and FIG. 3E) SiHa cells (2×10^4 cells per well) were seeded into a 96-well plate and allowed to incubate overnight. 100 μM of myricetin and 50 μM of spinacine were added 4 h prior to either (FIG. 3D) doxorubicin or (FIG. 3E) cisplatin. Cell viability was measured after overnight incubation using the MTT assay, and the viability of cells untreated with either myricetin or spinacine was set at 100%. Experiments were performed in triplicate, and error bars indicate the standard deviation.
The molecules were then tested to determine whether those that block E6/caspase 8 binding in vitro could also act in the context of a cell. SiHa cells are an HPV^+ cell line, derived from a cervical carcinoma, which serves as a commonly used model for HPV-associated malignancies. To determine whether HPV^+ SiHa cells are resistant to TRAIL-induced apoptosis, SiHa cells were treated with TRAIL and cell viability was assessed. TRAIL-sensitive, HPV^− U2OS cells served as a positive control. […] Myricetin and/or spinacine were tested to determine if they could sensitize these HPV^+ cells to TRAIL-induced apoptosis. […] Table 2 lists and compares the concentrations of the three tested compounds required to induce death in 50% of SiHa cells in the presence or absence of TRAIL.
The extracellular domain of human TRAIL was cloned into a pTriEx expression plasmid containing N-terminal Hisx6 tag. His-TRAIL was expressed in the E. coli BL-21 pLys strain and purified as previously described. Doxorubicin and cisplatin were purchased from Sigma. His-TRAIL, doxorubicin, and cisplatin were diluted in PBS to the desired concentration before using. To measure cell survival following treatment with TRAIL, cisplatin and doxorubicin, SiHa (2×10^4/well), C33A (1×10^4/well), and HNSCC cells (2×10^4/well) were seeded into 96-well plates and allowed to adhere overnight. Small molecules at the desired concentration were added and incubated at 37° C. for 4 h. As indicated, TRAIL, cisplatin or doxorubicin was then added. […] All experiments were repeated at least three times (three biological replicates, carried out on different days), with each experimental group measured in triplicate within each of these individual experiments. […]

[1] = tested on: caspase 3/7 activity in SiHa cells; assay: Caspase 3/7 activity assay in SiHa cells; assay type: cell-based, human; settings: 100 μM myricetin or 50 μM spinacine 4 h, TRAIL 100 ng/ml + cycloheximide, 0-6 h
Protocol: FIGS. 4A-C are graphs showing that myricetin and spinacine (5) increased caspase 3/7 activity in SiHa cells following treatment with TRAIL and chemotherapy drugs. SiHa cells (2×10^4 cells per well) were seeded into a 96-well plate and allowed to incubate overnight, then pre-treated with 100 μM of myricetin or 50 μM of spinacine for 4 h. (FIG. 4A) TRAIL (100 ng/ml), along with cycloheximide (5 μg/ml), (FIG. 4B) cisplatin (50 μM), or (FIG. 4C) doxorubicin (2 μM) were added respectively. Caspase 3/7 activity was measured after 0, 1.5, 3, and 6 hours using the […] assay. Activity at 0 h of treatment was set at 100% for each group. […]
Activation of caspase 3/7 is an essential marker for both extrinsic and intrinsic apoptosis, and can be used to determine whether cell death occurs through the apoptotic pathway. […] To test this, caspase 3/7 activity was measured in SiHa cells following TRAIL, cisplatin and doxorubicin treatment in the presence or absence of myricetin or spinacine.
Cells were plated into 96-well plates at a density of 2×10^4 cells per well and incubated overnight. […] Caspase 3/7 activity was measured using the […] for caspase 3/7 activity (Promega, Fitchburg, Wis., USA) following the manufacturer's instructions. […] The resulting difference was expressed as a percentage of the caspase activity of the untreated cells.

| Compound | toxicity to SiHa cells in the absence of TRAIL (in words) (SiHa cells) | caspase 3/7 activity when combined with TRAIL (in words) [1] |
| --- | --- | --- |
| O=C(O)C1Cc2[nH]cnc2CN1 (stereo not shown) [Compound 5, 4,5,6,7-Tetrahydro-1H-imidazo(4,5-c)pyridine-6-carboxylic acid] | low toxicity | increased significantly |
| O=c1c(O)c(-c2cc(O)c(O)c(O)c2)oc2cc(O)cc(O)c12 [Myricetin, reference compound] | low toxicity | increased significantly |
